Experimental data taken from patent publication US20250186369A1, “COMPOUNDS, COMPOSITIONS, AND METHODS FOR TREATING, AMELIORATING, AND/OR PRVENTING COCAINE USE DISORDER” (Drexel University, priority 2022, published 2025).

What was measured:
[1] = biological target: T1, D2 receptor (Homo sapiens, UniProt P14416); assay: ERK1/2 MAPK activation assay (phosphorylation immunoblot), D2 receptor; assay type: cell-based; details: 1 μM, 2 min, CHO-D2R (or HEK-D2R) cells
T1 construct: expressed in transfected cells; host or cells: CHO-D2R (or HEK-D2R) cells
Description: (§1) Selected compounds of the disclosure, as well as dopamine (DA) and PD128907 [a commercially available dopamine D2/D3 agonist; (4aR,10bR)-3,4a,4,10b-tetrahydro-4-propyl-2H,5H-[1]benzopyrano-[4,3-b]-1,4-oxazin-9-ol], were tested in an established ERK1/2 MAPK activation assay for dopamine D2 or D3 agonist activity. The results of these side-by-side tests, comprising immunoblot analysis of phosphorylated ERKT/2 MAPK, are illustrated in FIGS. 9-10.
(§2) Functional screening was conducted with vehicle or test compounds using ERK1/2 phosphorylation as endpoint as described herein. 0.4×10^6 CHO-D3R (or HEK-D3R) and CHO-D2R (or HEK-D2R) cells were seeded in 6-well plates and cultured in 3 ml DMEM complete growth medium for 48 h. […]
(§3) Cell lysates were assayed or protein content with DC Protein Assay Kit II (Bio-Rad). […] Total p44/42 MAPK levels in the same blots were also determined with rabbit anti-p44/42 MAPK monoclonal or polyclonal antibody (1:5000, Cell Signaling Technology) after stripping the blots of the same PVDF membrance. Chemiluminescence detection was performed using the SuperSignal West Dura Extended Duration Substrate detection kit (Thermo Scientific, Rockford, IL) and phosphorylated or total ERK1/2 MAPK immunoblots were quantified by densitometry with ImageQuant LAS4000 (GE Healthcare Bio-Sciences, Pittsburgh, PA). […]

[2] = biological target: T2, D3 receptor (Homo sapiens, UniProt P35462); assay: ERK1/2 MAPK activation assay (phosphorylation immunoblot), D3 receptor; assay type: cell-based; details: 1 μM, 2 min, CHO-D3R (or HEK-D3R) cells
T2 construct: expressed in transfected cells; host or cells: CHO-D3R (or HEK-D3R) cells
Description: as §1, §2, §3

[3] = system: pDAT; assay: Time course densitometry of pDAT levels in SH-SY5Y-D3R cells; assay type: cell-based; details: PRX 5 nM, SK608 1 μM, SK609 1 μM; for pDAT levels, combined with / post cocaine (CC): FIG. 5B, cocaine 1 μM
Description: FIGS. 5A-5B illustrate that SK609 and its analogues reduce pDAT levels when pretreated with cocaine in a time dependent manner. Time course densitometry analysis of the effects of cocaine (1 μM), PRX (5 nM), SK608 (1 μM), and SK609 (1 μM) on pDAT levels in SH-SY5Y-D3R cells. Different groups of cells were pre-treated with (FIG. 5A) CC, PRX, SK609 and SK608 or (FIG. 5B) CC, CC/PRX, CC/SK609 and CC/SK608 and were collected at the time points indicated. pDAT levels were measured and GAPDH was used as loading control. Data are presented as mean±sd from three independent experiments performed in triplicate.

[4] = system: dopamine transporter (DAT); assay: Fast scan cyclic voltammetry of dopamine release and uptake in nucleus accumbens core tissue after i.p. dosing; assay type: in vivo, rats; details: for dopamine release at baseline: FIG. 8B; for dopamine release at baseline / dopamine uptake at baseline: naive rats, i.p. 30 min prior to sacrifice, PRX 0.25 mg/kg, SK608 4 mg/kg, SK609 4 mg/kg, vs saline; for dopamine uptake at baseline: FIG. 8C; for dopamine release after bath-applied cocaine: FIG. 8D; for dopamine release after bath-applied cocaine / inhibition of dopamine uptake by cocaine: same dosing, cocaine bath applied to tissue; for inhibition of dopamine uptake by cocaine: FIG. 8E
Description: (§4) (FIG. 3A) DA release, (FIG. 3B) DA uptake (Vmax), and (FIG. 3C) DAT sensitivity to cocaine (inhibition of DA uptake; app Km) following vehicle (Veh) or 4 mg/kg SK609.
(§5) Naive rats were injected intraperitoneally with saline (SAL), pramipexole (PRX; 0.25 mg/kg), SK608 (608; 4 mg/kg), or SK609 (609; 4 mg/kg) 30 min prior to sacrifice. […] (FIG. 8A) Example dopamine traces, (FIG. 8B) dopamine release and (FIG. 8C) dopamine uptake at baseline, (FIG. 8D) dopamine release and (FIG. 8E) inhibition of dopamine uptake. Data are mean±s.e.m.
as §4
as §5, with “mean s.e.m.” for “mean±s.e.m.”

[5] = Self-administration of PRX or SK609 on fixed ratio 1 schedule before and after cocaine (FIG. 7)
Description: FIG. 7A: Rats were implanted with jugular catheters and then allowed to self-administer either pramipexole (PRX; 0.25 mg/kg) or SK609 (609; 4 mg/kg) on a 6-hr, fixed ratio 1 schedule of reinforcement (Pre-Cocaine; left gray shading). After 10 days of PRX or SK609 access, rats were switched to cocaine (0.75 mg/kg). Once rats acquired cocaine self-administration behavior (defined as 20 injections of cocaine within a single 6-session) they were allowed another two days of cocaine access (Cocaine; blue shading). Only the last 3 days of cocaine self-administration are plotted. After cocaine self-administration, rats were switched back to PRX and SK609 to assess if these compounds would now maintain reinforced responding (Post-Cocaine; right gray shading). […] Data are mean±s.e.m. Student's t-test. *p<0.05.
After 10 days of PRX or SK609 access, rats were switched to cocaine (0.75 mg/kg). Once rats acquired cocaine self-administration behavior (defined as 20 injections of cocaine within a single 6-session) they were allowed another two days of cocaine access (Cocaine; blue shading). Only the last 3 days of cocaine self-administration are plotted. After cocaine self-administration, rats were switched back to PRX and SK609 to assess if these compounds would now maintain reinforced responding (Post-Cocaine; right gray shading).
Data are mean±s.e.m. Student's t-test. *p<0.05.

[6] = in vivo; cited from earlier work
[7] = Cocaine self-administration on Progressive Ratio (PR) schedule, motivation for cocaine; assay type: in vivo, rodent; details: i.p. 2 mg/kg or 4 mg/kg SK609
Description: FIGS. 2A-2B illustrate that SK609 reduces motivation for cocaine in a rodent self-administration model. […] (FIG. 2A) Breakpoints and (FIG. 2B) lever presses following i.p. vehicle, 2 mg/kg or 4 mg/kg SK609. Data are expressed as the mean±s.e.m., percent of baseline responding. *P<0.05.
(FIG. 2A) Breakpoints and (FIG. 2B) lever presses following i.p. vehicle, 2 mg/kg or 4 mg/kg SK609. Data are expressed as the mean±s.e.m., percent of baseline responding. *P<0.05.

[8] = SK609 self-administration in rats (FIG. 1); assay type: in vivo; details: rats given access to 4 mg/kg SK609; comparison 0.75 mg/kg cocaine
Description: (§6) Shown are injections taken for rats given access to 4 mg/kg SK609 and 0.75 mg/kg cocaine. Dashed line represents acquisition criteria which required 4 consecutive days of 10 injections per session. Cocaine data are aligned to the first day in which rats met acquisition criteria. Data represent mean±s.e.m. *p<0.05, ***p<0.001.
as §6, with “Shown in FIG. 1” for “Shown”, “mean s.e.m.” for “mean±s.e.m.”

[9] = system: pDAT; assay: Western blot / densitometry of pDAT in striatal synaptosomes of cocaine-treated rats; assay type: in vivo; details: cocaine 15 mg/kg pre-treatment, SK609 4 mg/kg
Description: (FIG. 4A) Representative western blots for pDAT, tDAT, D3R, βarr2 and GAPDH on striatal synaptosomes derived from rats treated with either saline (sal) or cocaine (CC) (15 mg/kg) or SK609 (4 mg/kg) or Pramipexole (PRX; (S)-N^6-propyl-4,5,6,7-tetrahydro-1,3-benzothiazole-2,6-diamine) (0.25 mg/kg) with and without cocaine pre-treatment. […] (FIG. 4B) Densitometry analysis of pDAT expression. Data are presented as mean s.e.m. from 3 independent experiments from n=3 rats/group. *p<0.05, **p<0.001.
(FIG. 4A) Representative western blots for pDAT, tDAT, D3βarr2 and GAPDH on striatal synaptosomes derived from rats treated with either saline (sal) or cocaine (CC) (15 mg/kg) or SK609 (4 mg/kg) or Pramipexole (PRX) (0.25 mg/kg) with and without cocaine pre-treatment. (FIG. 4B) Densitometry analysis of pDAT expression. Data are presented as mean±s.e.m. from 3 independent experiments from n=3 rats/group. *p<0.05, **p<0.001.

T2 sequence (P35462 whole entry): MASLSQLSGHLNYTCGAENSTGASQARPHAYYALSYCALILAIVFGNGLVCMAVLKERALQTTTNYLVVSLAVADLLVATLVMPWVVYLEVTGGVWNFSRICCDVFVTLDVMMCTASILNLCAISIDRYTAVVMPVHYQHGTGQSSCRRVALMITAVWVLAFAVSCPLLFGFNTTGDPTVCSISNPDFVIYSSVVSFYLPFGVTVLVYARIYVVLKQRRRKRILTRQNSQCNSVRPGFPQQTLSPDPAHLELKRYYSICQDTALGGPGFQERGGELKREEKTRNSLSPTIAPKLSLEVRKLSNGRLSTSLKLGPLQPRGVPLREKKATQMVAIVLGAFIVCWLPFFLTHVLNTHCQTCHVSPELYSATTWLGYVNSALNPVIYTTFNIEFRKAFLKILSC
T1 sequence (P14416 whole entry): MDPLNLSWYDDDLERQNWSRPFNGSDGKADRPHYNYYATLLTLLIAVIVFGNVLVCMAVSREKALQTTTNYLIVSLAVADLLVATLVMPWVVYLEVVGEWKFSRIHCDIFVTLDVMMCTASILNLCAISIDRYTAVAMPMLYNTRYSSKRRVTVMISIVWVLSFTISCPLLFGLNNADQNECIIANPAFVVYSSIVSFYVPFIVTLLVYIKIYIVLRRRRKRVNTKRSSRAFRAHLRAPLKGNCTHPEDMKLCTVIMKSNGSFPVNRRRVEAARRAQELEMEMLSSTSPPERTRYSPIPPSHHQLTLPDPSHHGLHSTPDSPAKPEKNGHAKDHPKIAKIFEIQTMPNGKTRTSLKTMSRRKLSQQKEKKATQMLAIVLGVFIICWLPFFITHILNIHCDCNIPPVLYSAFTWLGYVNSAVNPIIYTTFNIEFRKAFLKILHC

| Compound | ERK1/2 phosphorylation induced by activation of D2 receptor [1] | ERK1/2 phosphorylation induced by activation of D3 receptor [2] | pDAT levels, compound on its own ([3]; FIG. 5A) | pDAT levels, combined with / post cocaine (CC) [3] | dopamine release at baseline [4] | dopamine uptake at baseline [4] | dopamine release after bath-applied cocaine [4] | inhibition of dopamine uptake by cocaine [4] | overall intake, post-cocaine ([5]; rat, in vivo) | cumulative intake, pre-cocaine ([5]; rat, in vivo, 10 days) | compulsive drug seeking behavior [6] | DA release ([4]; FIG. 3A, 4 mg/kg SK609 vs vehicle) | DA uptake (Vmax) ([4]; FIG. 3B, 4 mg/kg SK609 vs vehicle) | motivation for cocaine (breakpoints, lever presses) [7] | acquisition of self-administration of the compound (reinforcing effect) ([5]; FIG. 7A, 6-hr fixed ratio 1, PRX 0.25 mg/kg, SK609 4 mg/kg) | self-administration (injections taken) [8] | pDAT expression in striatal synaptosomes [9] |
| --- | --- | --- | --- | --- | --- | --- | --- | --- | --- | --- | --- | --- | --- | --- | --- | --- | --- |
| CCCN1CCO[C@@H]2c3cc(O)ccc3OC[C@H]21 [PD128609, (4aR,10bR)-3,4a,4,10b-tetrahydro-4-propyl-2H,5H-[1]benzopyrano-[4,3-b]-1,4-oxazin-9-ol] | activated both D2 and D3 receptors | activated both D2 and D3 receptors | – | – | – | – | – | – | – | – | – | – | – | – | – | – | – |
| CCCN[C@H]1CCc2nc(N)sc2C1 [PRX, (S)-N^6-propyl-4,5,6,7-tetrahydro-1,3-benzothiazole-2,6-diamine, reference compound] | – | – | significant increase in pDAT levels | significant increase in pDAT levels | no effect on DA release or uptake | no effect on DA release or uptake | had no effect | had no effect | sustained higher overall PRX intake compared to SK609 | higher cumulative intake of PRX compared to SK609 | producing compulsive drug seeking behavior | – | – | – | – | – | – |
| CC(N)CCc1ccc(Cl)cc1 (stereo not drawn) [SK608, 4-(4-chlorophenyl)-butan-2-amine] | – | – | – | significantly reduced pDAT levels | reduce DA release and uptake | reduce DA release and uptake | significantly reduced DA release and uptake inhibition by cocaine | significantly reduced DA release and uptake inhibition by cocaine | – | – | – | – | – | – | – | – | – |
| CC(N)CCc1ccccc1Cl (stereo not drawn) [SK609, 4-(2-chlorophenyl)-butan-2-amine] | – | – | – | significantly reduced pDAT levels | reduce DA release and uptake | reduce DA release and uptake | significantly reduced DA release and uptake inhibition by cocaine | significantly reduced DA release and uptake inhibition by cocaine | – | – | – | disrupts dopamine (DA) release and uptake | disrupts dopamine (DA) release and uptake | reduced motivation for cocaine | not robust reinforcers | does not support self-administration | reduces expression of pDAT |
